Experiments:
Assay in all cases: Cell proliferation assay, MTT, 5 days
Conditions in all cases: media containing 10% FBS
[1] = test system: Calu6 (human lung cancer); assay type: cell-based
Protocol: (§1) Melanoma B16 (murine), Calu 6 (human lung carcinoma), A549 (human lung carcinoma), LLC (murine Lewis Lung Carcinoma), NCI-H460 (human lung), MSTO-211H (human mesothelioma), MSTO-211H-Luc (luciferase transfected human mesothelioma), MCF7 (human breast), LMS05 (human sarcoma) were incubated (37° C., 5% CO2) with MEM (with 10% fetal bovine serum (FBS), 1% essential amino acids, and 1% Penicillin/Streptomyocin with L glutamine (Pen/Strep), F-12 HAM (with 10% FBS and 1% Pen/Strep), DMEM (with 10% FBS and 1% Pen/Strep) media, or DMEM (with 10% FBS and 1% GPS), with media changes once every three days. When not cultured, all cell lines were stored in RPMI freezing media at −80° C. (with 50% FBS, 40% RPMI and 10% dimethyl sulfoxide (DMSO)). Cell lines were trypsinized from the plates and seeded into 96 well plates at a concentration of 3000 cells per well. All cell lines were cultured for a period of at least seven days before being tested in cell uptake or proliferation assays etc.
(§2) Cell proliferation assays testing the effects of paclitaxel encapsulated within nanoparticles were performed using three tumor cell lines. Lewis Lung Carcinoma (LLC), Melanoma, and Calu6 (human lung cancer) cell lines were plated at 3,000 cells/well and when established, cultured in media with/without paclitaxel. […] At the end of 5 days, tumor cell proliferation was assessed via MTT analysis. […]

[2] = test system: Lewis Lung Carcinoma (LLC); assay type: cell-based, murine
Protocol: as §1, §2

[3] = test system: Melanoma; assay type: cell-based, murine
Protocol: as §1, §2

Measured: concentration that reliably inhibits growth

CC(=O)O[C@H]1C(=O)[C@@]2(C)[C@H]([C@H](OC(=O)c3ccccc3)[C@]3(O)C[C@H](OC(=O)[C@H](O)[C@@H](NC(=O)c4ccccc4)c4ccccc4)C(C)=C1C3(C)C)[C@]1(OC(C)=O)CO[C@@H]1C[C@@H]2O [paclitaxel]
1 to 10 ng/mL: all assays above
